Reference: publication PMC10350920, “Development of a 2,4-Diaminothiazole Series for the Treatment of Human African Trypanosomiasis Highlights the Importance of Static–Cidal Screening of Analogues” (Journal of Medicinal Chemistry, 2023)

Legend:
[1] = tested on: BSF T. b. brucei “single marker” S427; experiment: Drug sensitivity assay with bloodstream-form T. brucei; assay type: cell-based; conditions: Trypanosoma brucei; mean values; number of replicates in parentheses
Method: (§1) Drug sensitivity assays with BSF T. b. brucei “single marker” S427 and human MRC-5 fibroblasts were conducted as previously described.[43]

[2] = Human microsomal intrinsic clearance; assay type: in vitro ADME; conditions: second value of mouse/human cell
[3] = Mouse liver microsomal intrinsic clearance; assay type: in vitro ADME
Method: Test compounds (0.5 μM) were incubated with female CD1 mouse liver microsomes (Xenotech LLC; 0.5 mg mL^–1 50 mM potassium phosphate buffer, pH 7.4), and the reaction started with the addition of excess NADPH (8 mg mL^–1 50 mM potassium phosphate buffer, pH 7.4). Immediately, at 0 min, and then at 3, 6, 9, 15, and 30 min, an aliquot (50 μL) of the incubation mixture was removed and mixed with acetonitrile (100 μL) to stop the reaction. The internal standard was added to all samples, the samples were centrifuged to sediment the precipitated protein, and the plates were then sealed prior to UPLC–MS/MS analysis using a Quattro Premier XE (Waters Corporation, USA). XLfit (IDBS, UK) was used to calculate the exponential decay and consequently the rate constant (k) from the ratio of the peak area of the test compound to the internal standard at each time point. The rate of intrinsic clearance (CLint) of each test compound was then calculated using the following calculation [drawing 3] where V (mL mg^–1 protein) is the incubation volume mg^–1 protein added and the microsomal protein yield is taken as 52.5 mg protein g^–1 liver. Verapamil (0.5 μM) was used as a positive control to confirm acceptable assay performance.

[4] = Mammalian cell counter screen (MRC-5); assay type: cell-based, human; conditions: human, MRC-5 fibroblasts; mean values; number of replicates in parentheses
Method: as §1

[5] = tested on: human MRC-5 fibroblasts; experiment: Mammalian cell counter screen (MRC-5); assay type: cell-based; conditions: for SI: selectivity index (EC50 MRC5/EC50 T. brucei)
Method: as §1

[6] = Mouse brain penetration (brain:blood ratio); assay type: in vivo, female NMRI mice; conditions: female, NMRI, mouse, brain and blood, 10 mg kg^–1; mice, bolus of test compound, total compound; read-out: brain/blood (B/B) ratio
Method: Medicines for HAT are required to treat both acute and chronic infections, where parasites pass through the blood/brain barrier and enter the CNS. With this in mind, mice were dosed with an […] bolus of our test compounds, and compound concentrations in blood and brain were determined by UPLC–MS/MS. […] The brain fraction unbound was 0.0063 for 16 and 0.0313 for 38. Brain penetration of the series as a whole tracked with the generally accepted rules of CNS penetration, with a lower topological PSA (TPSA) and molecular weight compounds having an increased B/B ratio (Table S2 and Figure S1). However, the link between log P and the B/B ratio was slightly less convincing. […] This difference could be explained by 18 being a substrate for the P-glycoprotein efflux pump.
Each compound was dosed as an IV bolus at 10 mg kg^–1 dissolved in 15% solutol/Milli-Q (dose volume 10 mL kg^–1) to female NMRI mice (n = 3). At 30 min following the IV bolus of the test compound, mice (n = 3/time point) were placed under terminal anesthesia with isoflurane. A blood sample was taken by cardiac puncture and added to two volumes of distilled water, and the brain was removed. […] For each mouse at each time point, the concentration in the brain (ng g^–1) was divided by the concentration in blood (ng mL^–1) to give a brain: blood ratio.

[7] = Equilibrium dialysis, free fraction in plasma; assay type: in vitro ADME, mouse; conditions: CD1, mouse, plasma, pH 7.4; matrix not given; read-out: Fu (free fraction)
Method: In brief, a 96-well equilibrium dialysis apparatus was used to determine the free fraction in plasma and the brain (HT Dialysis LLC, Gales Ferry, CT). Isotonic buffer was prepared using 8.69 g of Na2HPO4, 1.9 g of KH2PO4, and 4.11 g of NaCl dissolved in 1 L of Milli-Q water, and the pH was adjusted to 7.4. Artificial CSF was prepared using 3.652 g of NaCl, 93.2 mg of KCl, 119.96 mg of MgCl2, 92.61 mg of CaCl2, and 268 mg of Na2HPO4 heptahydrate dissolved in 0.5 L of water, and the pH was adjusted to 7.4. Membranes [12–14 (plasma) or 6–9 (brain) kDA cutoff] were conditioned in deionized water for 60 min, followed by conditioning in 80:20 deionized water/ethanol for 20 min, and then rinsed in isotonic buffer (plasma) or […] (brain) before use. Female CD1 mouse plasma was defrosted and centrifuged for 10 min at 3000 rpm (Allegra X12-R, Beckman Coulter, USA). The control mouse brain was homogenized in two volumes of artificial CSF in a Covaris S2 acoustic homogenizer. Plasma or brain homogenate was spiked with the test compound (10 μg mL^–1), and 150 μL aliquots (n = 3 replicate determinations) were loaded into the 96-well equilibrium dialysis plate. Dialysis versus 150 μL of isotonic buffer (plasma) or artificial CSF (brain) was carried out for 5 h in a temperature-controlled incubator at 37 °C (Barworld Scientific Ltd, UK) using an orbital microplate shaker at 125 rpm (Barworld Scientific Ltd, UK). At the end of the incubation period, aliquots of plasma/homogenized brain or buffer were transferred to a clean 96-well plate, and the composition in each well was balanced with control fluid, such that the volume of buffer to the matrix was the same. Sample extraction was performed by the addition of 400 μL of acetonitrile containing an appropriate internal standard. Samples were allowed to mix for 1 min and then centrifuged at 3000 rpm in 96-well blocks for 10 min (Allegra X12-R, Beckman Coulter, USA). All samples were analyzed by means of UPLC/MS/MS on a Quattro Premier XE or Micro TQs mass spectrometer (Waters Corporation, USA). The unbound fraction was determined as the ratio of the peak area in the buffer to that in the matrix.

[8] = tested on: TbGSK3; parameters: method as in PMID 23776181; conditions: recombinant enzyme, previously established; cited from earlier work
[9] = Kinetic aqueous solubility (laser nephelometry); assay type: physicochemical; conditions: Milli-Q water with 2.5% DMSO
Method: The kinetic aqueous solubility of the test compounds was measured using laser nephelometry. Compounds were subject to serial dilution from 10 to 0.5 mM in DMSO. An aliquot was then mixed with Milli-Q water to obtain an aqueous dilution plate with a final concentration range of 13–250 μM, with a final DMSO concentration of 2.5%. Triplicate aliquots were transferred to a flat-bottomed polystyrene plate which was immediately read on the NEPHELOstar (BMG Lab Technologies). The amount of laser scatter caused by insoluble particulates (relative nephelometry units, RNUs) was plotted against compound concentration using a segmental regression fit, with the point of inflection being quoted as the compound’s aqueous solubility (μM).

With Nc1nc(Nc2ccccc2)sc1C(=O)c1ccccc1 [Compound 34, (4-Amino-2-(phenylamino)thiazol-5-yl)(phenyl)methanone] the EC50 [1] was 160 nM, the “CLint (human)” value [2] was under 0.5 mL·min/g and the “CLint (mouse)” value [3] was 12 mL·min/g. The EC50 [4] was 11000 nM, the “selectivity over MRC-5 cell line” value [5] was about 100 fold and the SI [5] was 69.
For CC(C)CC(=O)c1sc(Nc2ccc(F)c(F)c2)nc1N [Compound 37, 1-(4-Amino-2-((3,4-difluorophenyl)amino)thiazol-5-yl)-3-methylbutan-1-one], the EC50 [1] was 200 nM, the Kp at 30 min [6] was 4.7 and the “CLint (human)” value [2] was 3.2 mL·min/g. The “CLint (mouse)” value [3] was 5.9 mL·min/g, the EC50 [4] was over 50000 nM and the SI [5] was over 250.
In the case of Nc1nc(N[C@H]2CC[C@H](O)CC2)sc1C(=O)c1c(F)cccc1F [Compound 16A], the fraction unbound at 5 h, 10 μg mL^–1 [7] is reported as 0.39 and the EC50 [1] is reported as 360 nM.
In the case of CC(C)(C)C(=O)c1sc(NC2CCCCC2)nc1N [Compound 1, 1-(4-Amino-2-(cyclohexylamino)thiazol-5-yl)-2,2-dimethylpropan-1-one], the EC50 [1] is reported as 470 nM, the “CLint (mouse)” value [3] is reported as 2.5 mL·min/g and the EC50 [4] is reported as over 50000 nM. The “selectivity over MRC-5 cell line” value [5] was about 200 fold, the SI [5] was over 100 and the IC50 [8] was 12000 nM.
For CC(OCC(=O)c1sc(Nc2ccn(C)n2)nc1N)C(F)(F)F (stereo not shown) [Compound 55, 1-(4-Amino-2-((1-methyl-1H-pyrazol-3-yl)amino)thiazol-5-yl)-2-((1,1,1-trifluoropropan-2-yl)oxy)ethan-1-one], the EC50 [1] was 190 nM, the “CLint (mouse)” value [3] was 10.8 mL·min/g and the EC50 [4] was 9400 nM. The SI [5] was 50 and the solubility [9] was over 100 µg/mL.
